Test results from publication PMC6934184, “Selective DNA-PKcs inhibition extends the therapeutic index of localized radiotherapy and chemotherapy” (The Journal of Clinical Investigation, 2019).

Target: T1, TEC (Homo sapiens, UniProt P42680)
T1 construct: purchased Thermo Fisher Scientific (Life Technologies) SelectScreen
Assay: SelectScreen LanthaScreen
Type: binding
Details: read-out: % displacement
How it was run: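 NU5455 was profiled across the SelectScreen Broad panel of kinase activity and binding assays. Z'LYTE reactions such as CSF1R ran at apparent Km ATP, while the Adapta CAMK1 assay used ATP listed as 10. Values are given as percent.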

T1 sequence (P42680 whole entry): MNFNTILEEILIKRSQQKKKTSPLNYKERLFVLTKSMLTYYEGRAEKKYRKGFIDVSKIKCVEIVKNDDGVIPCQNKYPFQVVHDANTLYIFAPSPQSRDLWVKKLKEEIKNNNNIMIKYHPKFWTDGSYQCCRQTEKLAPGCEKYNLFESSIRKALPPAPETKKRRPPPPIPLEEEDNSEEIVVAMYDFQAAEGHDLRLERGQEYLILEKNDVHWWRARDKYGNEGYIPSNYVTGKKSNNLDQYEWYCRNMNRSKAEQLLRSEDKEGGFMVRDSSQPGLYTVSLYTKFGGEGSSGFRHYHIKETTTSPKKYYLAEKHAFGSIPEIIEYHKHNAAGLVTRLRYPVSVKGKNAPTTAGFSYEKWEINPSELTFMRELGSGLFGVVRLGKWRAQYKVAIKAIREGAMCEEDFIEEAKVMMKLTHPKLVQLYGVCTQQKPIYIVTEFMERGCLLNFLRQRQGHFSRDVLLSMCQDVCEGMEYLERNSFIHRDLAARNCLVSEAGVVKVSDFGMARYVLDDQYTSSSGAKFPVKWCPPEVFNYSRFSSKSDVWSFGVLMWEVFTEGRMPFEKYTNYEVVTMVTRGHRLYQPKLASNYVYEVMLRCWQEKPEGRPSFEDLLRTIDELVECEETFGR

SMILES: CN(C(=O)CN1CCOCC1)c1ccc2sc3c(-c4cccc5c(=O)cc(N6CC7CCC(C6)O7)oc45)cccc3c2c1 [NU5455]
- inhibition at 1 µM: 8.1%
